In publication PMC12419922, “Myristoylated Cathelicidin-DM Fused With ANG1-7: A Novel Self-Assembling Antimicrobial Peptide for the Treatment and Mechanism of Diabetic Infected Wounds” (Journal of Diabetes Research, 2025):
Where no end group is shown, it is not given here. The star is where a group is joined. Myristoyl = CCCCCCCCCCCCCC(=O)*

Legend:
HUVECs [1] = assay: Reactive oxygen species, DCFH-DA flow cytometry; type: cell-based, human; conditions: 20 μg/mL, compared with the HG + LPS group, p < 0.01
Procedure: To evaluate the antioxidant activity of MYR-DM-ANG1-7, HUVECs were cultured in DMEM supplemented with 10% FBS at 37°C and 5% CO2. After serum starvation for 24 h, the cells were divided into […] experimental groups: normal control group, high glucose + LPS, high glucose + DM group, and high glucose + MYR-DM-ANG1-7. After drug treatment, the cells were washed three times with ice-cold PBS and incubated with 10 μM DCFH-DA probe in serum-free medium at 37°C in the dark for 20 min. After removing the probe with PBS, the fluorescence intensity of 10,000 live cells was immediately measured by flow cytometry (excitation: 488 nm and emission: 530/30 nm). The data were expressed as the geometric mean fluorescence intensity (MFI) of each sample.

[2] = test system: S. aureus (ATCC 25923) infected diabetic wound; assay: Diabetic mouse S. aureus-infected full-thickness skin wound model; conditions: for wound healing rate: 200 μL subcutaneously for 3 days, n = 4
Procedure: BALB/c male mice are from the Experimental Animal Center of Air Force Military Medical University. One group was fed a normal diet, and the other five groups were fed a high-fat diet for 4 weeks and then injected with 35 mg/kg streptozotocin (STZ, 35 mg/kg, Sigma) intraperitoneally for 3 days. […] After intraperitoneal injection of pentobarbital sodium (1%, […]), the dorsal hair of each animal was shaved off, and a circular full-thickness skin wound was created on the back using a 10-mm sterile mouse punch. S. aureus (ATCC 25923) was used to infect the wound site of mice, and a full-thickness wound infection model of mice was established. S. aureus was first resuscitated by operation in a biological ultra-clean table. A single colony was picked and incubated in LB medium at 37°C and 200 rpm. The concentration of the above S. aureus solution was adjusted to 1 × 10^8 CFU/mL to infect the wound of mice. Then, 24 h after S. aureus infection, three drugs, DM (20 μg/mL), ANG1-7 (20 μg/mL), and MYR-DM-ANG1-7 (20 μg/mL), were dissolved in PBS buffer, and 200 μL was injected subcutaneously for 3 days. After drug injection, the wound pus was diluted and coated with plate culture to observe the colony situation. The gross specimen imaging system (GF-7A, China) was used to record the wounds of mice on the same day and every other day after the formation of the wounds. The rubber ring with adhesive backing was used to fix the wound and prevent it from shrinking. ImageJ analysis software (NIH, Bethesda, MD, United States) was used to calculate and analyze the wound area. After 0, 3, 7, 10, and 14 days, the size of the infected wound was evaluated by rubber ring. The wound closure was measured as follows: the wound healing rate (%) = [W0 − Wn]/W0 × 100%, where W0 and Wn represent the wound area on the 0th and nth days, respectively (n = 4).
On the 14th day, the skin tissue was fixed in 4% paraformaldehyde solution, dehydrated, embedded in paraffin, sliced, and stained with hematoxylin–eosin (HE) and Masson. Skin tissue sections on Day 7 were immunofluorescently stained using rabbit anti-mouse CD31 (Cell Signaling Technology) and α-SMA (Cell Signaling Technology), and all stained sections were observed under the slide scanner (Aperio AT 2; Leica Biosystems, Germany).

E. coli biofilms = assay: Antibiofilm activity, crystal violet staining and colony counting; type: cell-based, Escherichia coli; conditions: different concentrations, 37°C, 24 h, crystal violet OD 595 nm and viable count
Procedure: E. coli (ATCC 25922) and S. aureus (ATCC 25923) were cultured overnight in MHB medium at 37°C. The bacterial suspension was diluted to 100 times and added to a 12-well plate (500 μL/well). Each peptide with a different concentration was added to the corresponding well plate and incubated at 37°C for 24 h. After incubation, 100 μL of culture supernatant was discarded. The biofilm was fixed with 100 μL of 100% methanol for 15 min, then air-dried, then dyed with 0.1% crystal violet (CV) for 30 mins, and washed with distilled water three times. After adding 200 μL of 95% ethanol, the inhibition rate of the biofilm was calculated by measuring the OD value at 595 nm with Infinite M200 PRO, Switzerland. After ultrasonic treatment, the biofilm was fully dispersed into single cells, and the cell suspension was diluted to a suitable concentration for colony counting. All experiments were repeated three times.
The formation of bacterial biofilms in the wounds of DFU patients is the main cause of bacterial resistance. By measuring the antibiofilm ability, the inhibitory and clearing effects of drugs on biofilms can be assessed. In the case of preventing biofilm formation, E. coli and S. aureus were cultured in LB nutrient medium with different concentrations of the novel AMP MYR-DM-ANG1-7 in 24-well plates at 37°C and incubate for 24 h. […]

E. coli (ATCC 25922) = assay: MIC and growth inhibition, broth microdilution; type: cell-based, Escherichia coli
Procedure: (§1) The minimum inhibitory concentrations (MICs) of DM and MYR-DM-ANG1-7 were determined using the broth microdilution method. E. coli (ATCC 25922) and S. aureus (ATCC 25923) were cultured overnight in Mueller–Hinton broth (MHB) at 37°C. The cultures were diluted to 2 × 10^5 CFU/mL. The peptides were serially diluted in 10 mM phosphate-buffered solution (PBS) and added to a 96-well plate. The bacterial suspensions were mixed with an equal volume of peptide solution and incubated at 37°C for 18 h. Bacterial growth inhibition was determined by measuring the absorbance at 600 nm using a M200 multiwavelength microplate reader (Infinite M200 PRO, Switzerland). Subsequently, bacterial suspensions were treated with 1 × MIC, 2 × MIC, 3 × MIC, and 4 × MIC concentrations of the AMPs and sampled at 0, 3, 6, 12, 18, and 24 h. The absorbance was measured at 600 nm. The experiment was repeated three times.

HUVECs [3] = assay: MDA, thiobarbituric acid method; type: cell-based, human; conditions: HUVEC supernatant, HG + LPS (HG + LPS increased by 1.65 times); n = 3
Procedure: The level of MDA was determined by the thiobarbituric acid (TBA) method. Briefly, 100 μL of cell supernatant was mixed with 200 μL of a 10% trichloroacetic acid solution of 0.67% TBA. The mixture was incubated at 95°C for 30 min, cooled on ice, and centrifuged at 12,000 × g at 4°C for 10 min. The absorbance of the supernatant was measured at 532 nm using an enzyme-labeled instrument. The experiments were repeated three times.

S. aureus (ATCC 25923) = assay: MIC and growth inhibition, broth microdilution; type: cell-based, Staphylococcus aureus
Procedure: as §1

[4] = 4 × MIC (128 μg/mL), OD 600 nm at 0-24 h, repeated three times

Substance: Myristoyl-SSRRKPCKGWLCKLKLRGGYTLIGSATNLNRPTYVRAGGGDRVYIHP (cysteines drawn unpaired) [MYR-DM-ANG1-7]
- reduction of intracellular reactive oxygen species level (HUVECs [1]): approximately 32%
- wound healing rate ([2]; 7th day, 20 μg/mL in PBS): 72.77%
- wound healing rate ([2]; 10th day (diabetic control 40.26%), 20 μg/mL): 85.22%
- wound healing rate ([2]; 14th day (diabetic control 52.34%), 20 μg/mL): 95.66%
- pathological changes in the liver and kidneys ([2]; 14th day, H&E): no evidence of organ damage or pathological changes
- blood vessels, CD31 immunofluorescence ([2]; Day 7, compared with the diabetes infection group, p < 0.05): more blood vessels
- epidermis of wound tissue (HE staining) ([2]; Day 14, compared with the diabetes infection group): became thinner
- collagen deposition area (Masson staining) ([2]; Day 14, p < 0.0001): became larger
- fluorescence intensity of α-SMA ([2]; seventh day, vs the diabetes infection group, p < 0.01): significantly higher
- number of bacteria in the wound ([2]; wound pus plated on LB agar after 24 h of treatment, p < 0.0001): decreased
- formation of E. coli biofilms (E. coli biofilms): effectively inhibit
- growth of E. coli (inhibition curve) (E. coli (ATCC 25922); [4]): completely inhibit
- Minimum inhibitory concentration (E. coli (ATCC 25922); E. coli ATCC 25922, broth microdilution, MHB, 2 × 10^5 CFU/mL, 37°C, 18 h, absorbance 600 nm): 12 µg/mL
- increase of antibacterial efficacy compared to DM (E. coli (ATCC 25922); from MIC values against S. aureus and E. coli): 1.3 fold
- secretion of MDA, decreased by (HUVECs [3]): 0.51 times
- growth of S. aureus (inhibition curve) (S. aureus (ATCC 25923); [4]): completely inhibit
- Minimum inhibitory concentration (S. aureus (ATCC 25923); S. aureus ATCC 25923, broth microdilution, MHB, 2 × 10^5 CFU/mL, 37°C, 18 h, absorbance 600 nm): 16 µg/mL
